# Target: GAK (amino acids Q25-N335) (Homo sapiens (Human), UniProt O14976)
# Assay: GAK pSENs assay
# Type: biochemical
# Conditions: not given
# Protocol: (§1) The recombinant proteins were independently expressed in Esherichia coli BL21(DE3) cells cultured in Luria-Bertani (LB) medium until OD600 reached 0.6-0.8, then cooled to 15° C., and supplemented with 0.5 mM isopropyl 1-thio-D-galactopyranoside (IPTG) induce protein expression 16 h. Cells were harvested and resuspended in lysis buffer (50 mM HEPES pH 7.5, 500 mM NaCl, 5 mM imidazole, 5% glycerol, 0.5 mM Tris (2-carboxyethyl) phosphine (TCEP), cOmplete Protease Inhibitor Tablet (Roche)) and lysed by microfluidics high pressure homogenizer (UH-06, Union-Biotech). Proteins were purified using Ni-Affinity chromatography (His FF column, Bestchrom) and eluted stepwise in binding buffer with 20-300 mM imidazole. Removal of the hexahistidine tag was performed at 4° C. overnight using recombinant TEV protease and reacted with BirA to obtain the corresponding biotinylated-AAK1. BIKE or GAK proteins. Further separated in the reverse Strep column (Strep-Tactin® XT, IBA). The Biotin elution sample was collected containing untagged biotinylated protein was then purified by Ion-exchange chromatography (Mono Q 10/100 GL, Cytiva) and Size-exclusion chromatography (HiLoad 16/600 Superdex 200 pg, Cytiva). The pure protein was stored in a storage buffer 50 mM HEPES (pH 7.5), 300 mM NaCl, 5% glycerol at −80° C. Protein were characterized by SDS-PAGE. LC-MS and aSEC.
# This example describes one illustrative method for determining the IC50 of the compounds of the present invention against GAK (amino acids Q25-N335).
# GAK (amino acids Q25-N335), sequence (O14976 25-335): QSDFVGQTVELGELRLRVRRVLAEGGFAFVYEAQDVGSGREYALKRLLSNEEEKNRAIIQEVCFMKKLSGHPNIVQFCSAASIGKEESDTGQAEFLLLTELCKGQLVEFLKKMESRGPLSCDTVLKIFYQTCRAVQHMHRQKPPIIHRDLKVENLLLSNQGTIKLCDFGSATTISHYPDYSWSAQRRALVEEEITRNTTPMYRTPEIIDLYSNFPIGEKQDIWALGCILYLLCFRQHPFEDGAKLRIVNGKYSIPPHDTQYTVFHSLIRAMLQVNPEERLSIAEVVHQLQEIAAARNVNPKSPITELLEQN
row,SMILES,IC50
1,"CC(C)Oc1ncccc1-c1cnn2ccc(N3CCN(C(=O)OC4(C)COC4)CC3)nc12 [Compound I-1, (3-methyloxetan-3-yl)-4-[3-(2-isopropoxy-3-pyridyl)pyrazolo[1,5-a]pyrimidin-5-yl]piperazine-1-carboxylate]",> 1.5 µM
2,"[2H]C1([2H])N(C(=O)O[C@H]2CC(=O)N(C)C2)C([2H])([2H])C([2H])([2H])N(c2ccn3ncc(-c4cccnc4OC4CC4)c3n2)C1([2H])[2H] [Compound I-73, [(3S)-1-methyl-5-oxo-pyrrolidin-3-yl]-4-[3-[2-(cyclopropoxy)-3-pyridyl]pyrazolo[1,5-a]pyrimidin-5-yl]-2,2,3,3,5,5,6,6-octadeuterio-piperazine-1-carboxylate]",> 1.5 µM

# Target: AAK1 (amino acids T27-A365) (Homo sapiens (Human), UniProt Q2M2I8)
# Sequence (Q2M2I8 27-365): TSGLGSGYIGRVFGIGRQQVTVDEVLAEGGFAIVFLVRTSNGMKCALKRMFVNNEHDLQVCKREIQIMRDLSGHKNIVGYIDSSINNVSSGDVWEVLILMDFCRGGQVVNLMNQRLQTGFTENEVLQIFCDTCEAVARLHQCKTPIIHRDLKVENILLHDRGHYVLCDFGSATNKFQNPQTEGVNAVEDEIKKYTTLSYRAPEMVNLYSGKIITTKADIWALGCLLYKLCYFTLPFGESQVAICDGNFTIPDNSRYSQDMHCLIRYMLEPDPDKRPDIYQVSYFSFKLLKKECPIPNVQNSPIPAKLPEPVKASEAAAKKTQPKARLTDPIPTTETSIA
# Assay: AAK1 pSENs assay
# Type: biochemical
# Conditions: ratio of AAK1 pSENs activity to GAK pSENs activity
# Protocol: as §1
# This example describes one illustrative method for determining the IC50 of the compounds of the present invention against AAK1 (amino acids T27-A365). AAK1 protein was dissolved at 20 nM in 1× enzyme solution (50 mM HEPES pH7.5, 10 mM MgCl2, 1 mM DTT, 1% glycerol, 0.5 mM EGTA, 0.01% Briji35, 0.02% BSA) and 12.5 ul was incubated with 250 nl DMSO or 250 nl compound in DMSO at 25° C. for 15 min. The reaction was started by addition of 12.5 ul of 30 uM AQT0759 (Assayquant, CSKS-AQT0759B) and 70 uM ATP which were diluted in 1× substrate dilution buffer (50 mM HEPES pH7.5, 10 mM MgCl2, 1 mM DTT, 1% glycerol, 0.5 mM EGTA, 0.01% Briji35).
row,SMILES,AAK1:GAK pSENs Selectivity
1,"CC(C)Oc1ncccc1-c1cnn2ccc(N3CCN(C(=O)OC4(C)COC4)CC3)nc12 [Compound I-1, (3-methyloxetan-3-yl)-4-[3-(2-isopropoxy-3-pyridyl)pyrazolo[1,5-a]pyrimidin-5-yl]piperazine-1-carboxylate]",A (A: ≤0.015)
2,"CC(C)Oc1ncccc1-c1cnn2ccc(N3CCN(C(=O)O[C@]4(C)CCNC4)CC3)nc12 [Compound I-22, [(3R)-3-methylpyrrolidin-3-yl]4-[3-(2-isopropoxy-3-pyridyl)pyrazolo[1,5-a]pyrimidin-5-yl]piperazine-1-carboxylate]",B (B: 0.016-0.075)
3,"CC(C)(C)OC(=O)N1CCC(N2C[C@H](OC(=O)N3CCN(c4ccn5ncc(-c6cccnc6OC6CC6)c5n4)CC3)CC2=O)CC1 [Compound I-31, (R)-1-(1-(tert-Butoxycarbonyl)piperidin-4-yl)-5-oxopyrrolidin-3-yl 4-(3-(2-cyclopropoxypyridin-3-yl)pyrazolo[1,5-a]pyrimidin-5-yl)piperazine-1-carboxylate]",D (D: 0.16-1.00)
4,"CN(CCN1C[C@@H](OC(=O)N2CCN(c3ccn4ncc(-c5cccnc5OC5CC5)c4n3)CC2)CC1=O)C(=O)OC(C)(C)C [Compound I-35, (S)-1-(2-((tert-butoxycarbonyl)(methyl)amino)ethyl)-5-oxopyrrolidin-3-yl-4-(3-(2-cyclopropoxypyridin-3-yl)pyrazolo[1,5-a]pyrimidin-5-yl)piperazine-1-carboxylate]",B (B: 0.016-0.075)
5,"O=C1C[C@H](OC(=O)N2CCN(c3ccn4ncc(-c5cccnc5NC5CC5)c4n3)CC2)CN1 [Compound I-45, [(3S)-5-Oxopyrrolidin-3-yl]4-[3-[2-(cyclopropylamino)-3-pyridyl]pyrazolo[1,5-a]pyrimidin-5-yl]piperazine-1-carboxylate]",E (E: >1.00)
6,"C[C@@]1(OC(=O)N2CCN(c3ccn4ncc(-c5cccnc5OC5CC5)c4n3)CC2)CCN(CC(N)=O)C1 [Compound I-51, (R)-1-(2-amino-2-oxoethyl)-3-(methylpyrrolidin-3-yl)-4-(3-(2-cyclopropoxypyridin-3-yl)pyrazolo[1,5-a]pyrimidin-5-yl)piperazine-1-carboxylate]",A (A: ≤0.015)
7,"CN(CCNc1ccn2ncc(-c3cccnc3OC3CC3)c2n1)C(=O)O[C@]1(C)CCNC1 [Compound I-61, (R)-3-methylpyrrolidin-3-yl (2-((3-(2-cyclopropoxypyridin-3-yl)pyrazolo[1,5-a]pyrimidin-5-yl)amino)ethyl)(methyl)carbamate]",B (B: 0.016-0.075)
8,CN1C[C@H](OC(=O)N2CCN(c3ccn4ncc(-c5cccnc5OC5CC5)c4n3)CC2)CC1=O [Compound I-94],A (A: ≤0.015)
9,"CN1C[C@@H](OC(=O)N2CCN(c3ccn4nccc4n3)CC2)CC1=O [Compound I-97, [(3S)-1-methyl-5-oxo-pyrrolidin-3-yl]-4-pyrazolo[1,5-a]pyrimidin-5-ylpiperazine-1-carboxylate]",E (E: >1.00)
10,"CN1C[C@@H](OC(=O)N2CCN(c3ccn4ncc(-c5cccnc5O)c4n3)CC2)CC1=O [Compound I-98, [(3S)-1-methyl-5-oxo-pyrrolidin-3-yl]-4-[3-(2-hydroxy-3-pyridyl)pyrazolo[1,5-a]pyrimidin-5-yl]piperazine-1-carboxylate]",C (C: 0.076-0.15)
11,"CC(C)(C)OC(=O)N1CCN(c2ccn3ncc(Cl)c3n2)CC1 [Compound I-100, tert-butyl 4-(3-chloropyrazolo[1,5-a]pyrimidin-5-yl)piperazine-1-carboxylate]",D (D: 0.16-1.00)
12,"CC(C)(C)OC(=O)N1CCN(c2ccn3ncc(-c4cccnc4O)c3n2)CC1 [Compound I-102, tert-butyl 4-[3-(2-hydroxy-3-pyridyl)pyrazolo[1,5-a]pyrimidin-5-yl]piperazine-1-carboxylate]",A (A: ≤0.015)
13,"Brc1cnn2ccc(N3CCNCC3)nc12 [Compound I-103, 3-bromo-5-piperazin-1-yl-pyrazolo[1,5-a]pyrimidine]",E (E: >1.00)
14,"Clc1cnn2ccc(N3CCNCC3)nc12 [Compound I-104, 3-chloro-5-piperazin-1-yl-pyrazolo[1,5-a]pyrimidine]",E (E: >1.00)
15,"c1cc2nc(N3CCNCC3)ccn2n1 [Compound I-105, 5-piperazin-1-ylpyrazolo[1,5-a]pyrimidine]",E (E: >1.00)
16,"[2H]C([2H])([2H])N1C[C@@H](OC(=O)N2CCN(c3nc4c(-c5cc(OC)cnc5OC5CC5)cnn4cc3F)CC2)CC1=O [Compound I-117, [(3S)-5-oxo-1-(trideuteriomethyl)pyrrolidin-3-yl]4-[3-[2-(cyclopropoxy)-5-methoxy-3-pyridyl]-6-fluoro-pyrazolo[1,5-a]pyrimidin-5-yl]piperazine-1-carboxylate]",A (A: ≤0.015)
17,"COc1ncccc1-c1cnn2ccc(N3CCN(C(=O)OC4(C)COC4)CC3)nc12 [RC-1, (3-methyloxetan-3-yl)-4-[3-(2-methoxy-3-pyridyl)pyrazolo[1,5-a]pyrimidin-5-yl]piperazine-1-carboxylate, reference compound]",0.0083

# Results, then the compound that gave them:
row,AAK1:GAK pSENs Selectivity,SMILES
1,A (A: ≤0.015),"O=C1C[C@H](OC(=O)N2CCN(c3ccn4ncc(-c5cccnc5OC5CC5)c4n3)CC2)CN1CCOCc1ccccc1 [Compound I-37, [(3S)-1-(2-benzyloxyethyl)-5-oxo-pyrrolidin-3-yl]-4-[3-[2-(cyclopropoxy)-3-pyridyl]pyrazolo[1,5-a]pyrimidin-5-yl]piperazine-1-carboxylate]"
2,B (B: 0.016-0.075),"COc1ncccc1-c1cnn2ccc(NCCN(C)C(=O)O[C@H]3CO[C@H]4OCC[C@H]43)nc12 [Compound I-70, (3R,3aS,6aR)-hexahydrofuro[2,3-b]furan-3-yl (2-((3-(2-methoxypyridin-3-yl)pyrazolo[1,5-a]pyrimidin-5-yl)amino)ethyl)(methyl)carbamate]"
3,B (B: 0.016-0.075),"CN(CCNc1ccn2ncc(-c3cccnc3OC3CC3)c2n1)C(=O)O[C@H]1CO[C@H]2OCC[C@H]21 [Compound I-71, (3R,3aS,6aR)-hexahydrofuro[2,3-b]furan-3-yl (2-((3-(2-cyclopropoxypyridin-3-yl)pyrazolo[1,5-a]pyrimidin-5-yl)amino)ethyl)(methyl)carbamate]"
4,A (A: ≤0.015),COc1cnc(OC2CC2)c(-c2cnn3ccc(N4CCN(C(=O)O[C@H]5CC(=O)N(C)C5)CC4)nc23)c1 [Compound I-87]
5,B (B: 0.016-0.075),CN1C[C@@H](OC(=O)N2CCN(c3ccn4ncc(-c5cc(OC(F)(F)F)cnc5OC5CC5)c4n3)CC2)CC1=O [Compound I-88]
6,E (E: >1.00),"CN1C[C@@H](OC(=O)N2CCN(c3ccn4ncc(Cl)c4n3)CC2)CC1=O [Compound I-96, [(3S)-1-methyl-5-oxo-pyrrolidin-3-yl]-4-(3-chloropyrazolo[1,5-a]pyrimidin-5-yl)piperazine-1-carboxylate]"
7,C (C: 0.076-0.15),"Oc1ncccc1-c1cnn2ccc(N3CCNCC3)nc12 [Compound I-106, 3-(5-piperazin-1-ylpyrazolo[1,5-a]pyrimidin-3-yl)pyridin-2-ol]"
8,C (C: 0.076-0.15),"CC(C)(C)OC(=O)NCCNc1nc2c(-c3cccnc3OC3CC3)cnn2cc1F [Compound I-124, tert-butyl N-[2-[[3-[2-(cyclopropoxy)-3-pyridyl]-6-fluoro-pyrazolo[1,5-a]pyrimidin-5-yl]amino]ethyl]carbamate]"
9,C (C: 0.076-0.15),"CC(C)(C)OC(=O)NCCNc1ccc2ncc(-c3cccnc3OC3CC3)n2n1 [Compound I-129, tert-butyl N-[2-[[3-[2-(cyclopropoxy)-3-pyridyl]imidazo[1,2-b]pyridazin-6-yl]amino]ethyl]carbamate]"

# From patent US20250270222A1, “AP2 ASSOCIATED KINASE 1 INHIBITORS AND USES THEREOF” (Satellos Bioscience Inc., priority 2023, published 2025)
